# Measurements from patent publication US6461997B1, “Triazole sulfones having herbicidal activity” (Monsanto Technology LLC, priority 1999, dated 2002).
# Experiments:
# SOLNI (black nightshade) = experiment: Pre-emergence herbicidal activity, warm season; assay type: in vivo, Solanum nigrum; details: GR80 = lowest tested rate (300, 100, 30, 10 g/ha) with 80% or greater inhibition; approx. 14 days after treating; 30/21° C.
# How it was run: (§1)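 GR80 values derive from percent inhibition relative to untreated plants, read roughly 14 days after sowing and pre-emergence soil-surface treatment (compound in 50:50 acetone/water; rates typically 10, 30, 100, 300 g/ha). Warm-season weeds grew at 30/21° C day/night, cool-season ones at 18/13° C; an asterisk marks activity without reaching 80% at the highest rate.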
# [1] = system: CIRAR (canada thistle (seedling)); experiment: Pre-emergence herbicidal activity, warm season; assay type: in vivo, Cirsium arvense; details: GR80 = lowest tested rate (300, 100, 30, 10 g/ha) with 80% or greater inhibition; approx. 14 days after treating; 30/21° C.
# How it was run: as §1
# [2] = system: PANMI (wild proso millet); experiment: Pre-emergence herbicidal activity, warm season; assay type: in vivo, Panicum miliaceum; details: GR80 = lowest tested rate (300, 100, 30, 10 g/ha) with 80% or greater inhibition; approx. 14 days after treating; 30/21° C.
# How it was run: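 GR80 values, pre-emergence, soil applied at 300, 100, 30, 10 g/ha. Warm regime 30/21 °C: PANMI, DIGSA. Cool regime 18/13 °C: ALOMY, POLCO. Rating ~14 d, % inhibition vs untreated.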
# STEME (common chickweed) = experiment: Pre-emergence herbicidal activity, cool season; assay type: in vivo, Stellaria media; details: lowest tested rate with 80% or greater inhibition; rates 300, 100, 30, 10 g/ha; about 14 days
# How it was run: as §1
# DIGSA (large crabgrass) = experiment: Pre-plant incorporated (PPI) herbicidal activity, warm season; assay type: in vivo, Digitaria sanguinalis
# How it was run: (§2)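 Percent inhibition relative to untreated plants, scored about 14 days after planting. Compound was sprayed in organic solvent onto cover soil, mixed through, and layered over seeds on compacted topsoil. Warm-season species grown at 30/21° C, cool-season at 18/13° C day/night.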
# SASKR (russian thistle) = experiment: Pre-plant incorporated (PPI) herbicidal activity, cool season; assay type: in vivo, Salsola kali
# How it was run: as §2
# LOLMG (annual ryegrass) = experiment: as above; assay type: in vivo, Lolium multiflorum
# How it was run: as §2
# AVEFA (wild oat) = experiment: as above; assay type: in vivo, Avena fatua
# How it was run: as §2
# [3] = system: AGSST (creeping bentgrass); experiment: as above; assay type: in vivo, Agrostis stolonifera
# How it was run: as §2
# corn (ZEAMX) = experiment: Selectivity test, PPI, warm season crop; assay type: in vivo, Zea mays; details: PPI application
# How it was run: (§3)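 Percent inhibition relative to untreated controls, assessed roughly 14 days post-planting. Seeds were covered with a soil layer into which solvent-borne compound had been sprayed and mixed. Plants were then grown at 30/21° C. (warm season) or 18/13° C. (cool season) day/night regimes.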
# soybean (GLYMX) = experiment: Selectivity test, PPI, warm season crop; assay type: in vivo, Glycine max; details: PPI application
# How it was run: as §3
# [4] = pre-plant incorporated, lowest tested rate with 80% or greater inhibition, about 14 days
# [5] = weed, PPI application, 100 g/ha
# [6] = weed, PPI application, 300 g/ha
# [7] = weed, PPI application, 900 g/ha
compound,measurement,setting,value
"CCSC(F)(F)S(=O)(=O)c1ncn(C(=O)N(CC)CC)n1 [Example 8, 1-(N,N-diethylcarbamoyl)-3-[difluoro(ethylthio)methylsulfonyl]-1,2,4-triazole]",Pre-emergence activity (GR80) SOLNI,SOLNI (black nightshade),100 g/ha
same,Pre-emergence activity (GR80) CIRAR,[1],300 g/ha
same,Pre-emergence activity (GR80) PANMI,[2],100 g/ha
same,"Pre-emergence activity GR80, STEME",STEME (common chickweed),[empty]
same,inhibition at 30 g/ha,"DIGSA (large crabgrass); Digitaria sanguinalis, PPI application, 30 g/ha, read-out: Percent inhibition DIGSA",100%
same,inhibition at 100 g/ha,"DIGSA (large crabgrass); Digitaria sanguinalis, PPI application, 100 g/ha, read-out: Percent inhibition DIGSA",100%
same,inhibition at 300 g/ha,"DIGSA (large crabgrass); Digitaria sanguinalis, PPI application, 300 g/ha, read-out: Percent inhibition DIGSA",100%
same,inhibition at 900 g/ha,"DIGSA (large crabgrass); Digitaria sanguinalis, PPI application, 900 g/ha, read-out: Percent inhibition DIGSA",100%
same,"PPI activity GR80, DIGSA",DIGSA (large crabgrass); [4],30 g/ha
same,inhibition at 30 g/ha,"SASKR (russian thistle); Salsola kali, weed, PPI application, 30 g/ha, read-out: Percent inhibition SASKR",0%
same,inhibition at 100 g/ha,"SASKR (russian thistle); Salsola kali, weed, PPI application, 100 g/ha, read-out: Percent inhibition SASKR",50%
same,inhibition at 300 g/ha,"SASKR (russian thistle); Salsola kali, weed, PPI application, 300 g/ha, read-out: Percent inhibition SASKR",90%
same,inhibition at 900 g/ha,"SASKR (russian thistle); Salsola kali, weed, PPI application, 900 g/ha, read-out: Percent inhibition SASKR",100%
same,"PPI activity GR80, SASKR",SASKR (russian thistle); [4],100 g/ha
same,inhibition at 30 g/ha,"LOLMG (annual ryegrass); Lolium multiflorum, weed, PPI application, 30 g/ha, read-out: Percent inhibition LOLMG",35%
same,inhibition at 100 g/ha,"LOLMG (annual ryegrass); Lolium multiflorum, weed, PPI application, 100 g/ha, read-out: Percent inhibition LOLMG",100%
same,inhibition at 300 g/ha,"LOLMG (annual ryegrass); Lolium multiflorum, weed, PPI application, 300 g/ha, read-out: Percent inhibition LOLMG",100%
same,inhibition at 900 g/ha,"LOLMG (annual ryegrass); Lolium multiflorum, weed, PPI application, 900 g/ha, read-out: Percent inhibition LOLMG",100%
same,"PPI activity GR80, LOLMG",LOLMG (annual ryegrass); [4],100 g/ha
same,inhibition at 30 g/ha,"AVEFA (wild oat); Avena fatua, weed, PPI application, 30 g/ha, read-out: Percent inhibition AVEFA",10%
same,inhibition at 100 g/ha,"AVEFA (wild oat); Avena fatua, weed, PPI application, 100 g/ha, read-out: Percent inhibition AVEFA",75%
same,inhibition at 300 g/ha,"AVEFA (wild oat); Avena fatua, weed, PPI application, 300 g/ha, read-out: Percent inhibition AVEFA",95%
same,inhibition at 900 g/ha,"AVEFA (wild oat); Avena fatua, weed, PPI application, 900 g/ha, read-out: Percent inhibition AVEFA",100%
same,"PPI activity GR80, AVEFA",AVEFA (wild oat); [4],100 g/ha
same,inhibition at 30 g/ha,"[3]; Agrostis stolonifera, weed, PPI application, 30 g/ha, read-out: Percent inhibition AGSST",100%
same,inhibition at 100 g/ha,"[3]; Agrostis stolonifera, weed, PPI application, 100 g/ha, read-out: Percent inhibition AGSST",100%
same,inhibition at 300 g/ha,"[3]; Agrostis stolonifera, weed, PPI application, 300 g/ha, read-out: Percent inhibition AGSST",100%
same,inhibition at 900 g/ha,"[3]; Agrostis stolonifera, weed, PPI application, 900 g/ha, read-out: Percent inhibition AGSST",100%
same,"PPI activity GR80, AGSST",[3]; [4],30 g/ha
same,inhibition at 30 g/ha,"corn (ZEAMX); Zea mays, 30 g/ha, read-out: Percent inhibition ZEAMX",0%
same,inhibition at 100 g/ha,"corn (ZEAMX); Zea mays, 100 g/ha, read-out: Percent inhibition ZEAMX",5%
same,inhibition at 300 g/ha,"corn (ZEAMX); Zea mays, 300 g/ha, read-out: Percent inhibition ZEAMX",65%
same,inhibition at 900 g/ha,"corn (ZEAMX); Zea mays, 900 g/ha, read-out: Percent inhibition ZEAMX",95%
same,inhibition at 30 g/ha,"soybean (GLYMX); Glycine max, 30 g/ha, read-out: Percent inhibition GLYMX",0%
same,inhibition at 100 g/ha,"soybean (GLYMX); Glycine max, 100 g/ha, read-out: Percent inhibition GLYMX",10%
same,inhibition at 300 g/ha,"soybean (GLYMX); Glycine max, 300 g/ha, read-out: Percent inhibition GLYMX",40%
same,inhibition at 900 g/ha,"soybean (GLYMX); Glycine max, 900 g/ha, read-out: Percent inhibition GLYMX",65%
CCN(CC)C(=O)n1cnc(S(=O)(=O)C(F)(F)SC)n1 [Example 9],Pre-emergence activity (GR80) SOLNI,SOLNI (black nightshade),100 g/ha
same,Pre-emergence activity (GR80) CIRAR,[1],100 g/ha
same,Pre-emergence activity (GR80) PANMI,[2],100 g/ha
same,"Pre-emergence activity GR80, STEME",STEME (common chickweed),300 g/ha
same,Percent inhibition DIGSA,"DIGSA (large crabgrass); PPI application, 30 g/ha",95%
same,Percent inhibition DIGSA,"DIGSA (large crabgrass); PPI application, 100 g/ha",100%
same,Percent inhibition DIGSA,"DIGSA (large crabgrass); PPI application, 300 g/ha",100%
same,Percent inhibition DIGSA,"DIGSA (large crabgrass); PPI application, 900 g/ha",100%
same,Percent inhibition SASKR,"SASKR (russian thistle); weed, PPI application, 30 g/ha",50%
same,Percent inhibition SASKR,SASKR (russian thistle); [5],100%
same,Percent inhibition SASKR,SASKR (russian thistle); [6],95%
same,Percent inhibition SASKR,SASKR (russian thistle); [7],100%
same,Percent inhibition LOLMG,"LOLMG (annual ryegrass); weed, PPI application, 30 g/ha",60%
same,Percent inhibition LOLMG,LOLMG (annual ryegrass); [5],100%
same,Percent inhibition LOLMG,LOLMG (annual ryegrass); [6],100%
same,Percent inhibition LOLMG,LOLMG (annual ryegrass); [7],100%
same,Percent inhibition AVEFA,"AVEFA (wild oat); weed, PPI application, 30 g/ha",0%
same,Percent inhibition AVEFA,AVEFA (wild oat); [5],20%
same,Percent inhibition AVEFA,AVEFA (wild oat); [6],100%
same,Percent inhibition AVEFA,AVEFA (wild oat); [7],100%
same,Percent inhibition AGSST,"[3]; weed, PPI application, 30 g/ha",99%
same,Percent inhibition AGSST,[3]; [5],100%
same,Percent inhibition AGSST,[3]; [6],100%
same,Percent inhibition AGSST,[3]; [7],100%
same,Percent inhibition ZEAMX,corn (ZEAMX); 30 g/ha,0%
same,Percent inhibition ZEAMX,corn (ZEAMX); 100 g/ha,10%
same,Percent inhibition ZEAMX,corn (ZEAMX); 300 g/ha,90%
same,Percent inhibition ZEAMX,corn (ZEAMX); 900 g/ha,99%
same,Percent inhibition GLYMX,soybean (GLYMX); 30 g/ha,0%
same,Percent inhibition GLYMX,soybean (GLYMX); 100 g/ha,10%
same,Percent inhibition GLYMX,soybean (GLYMX); 300 g/ha,20%
same,Percent inhibition GLYMX,soybean (GLYMX); 900 g/ha,40%
CCN(CC)C(=O)n1cnc(S(=O)(=O)C(F)(F)SCc2ccccc2)n1 [Example 10],Pre-emergence activity (GR80) SOLNI,SOLNI (black nightshade),300 g/ha
same,Pre-emergence activity (GR80) CIRAR,[1],300 g/ha
same,Pre-emergence activity (GR80) PANMI,[2],300 g/ha
same,"Pre-emergence activity GR80, STEME",STEME (common chickweed),300 g/ha
same,Percent inhibition DIGSA,"DIGSA (large crabgrass); PPI application, 10 g/ha",0%
same,Percent inhibition DIGSA,"DIGSA (large crabgrass); PPI application, 30 g/ha",0%
same,Percent inhibition DIGSA,"DIGSA (large crabgrass); PPI application, 100 g/ha",90%
same,Percent inhibition DIGSA,"DIGSA (large crabgrass); PPI application, 300 g/ha",85%
same,Percent inhibition DIGSA,"DIGSA (large crabgrass); PPI application, 900 g/ha",100%
same,Percent inhibition SASKR,"SASKR (russian thistle); weed, PPI application, 10 g/ha",10%
same,Percent inhibition SASKR,"SASKR (russian thistle); weed, PPI application, 30 g/ha",20%
same,Percent inhibition SASKR,SASKR (russian thistle); [5],90%
same,Percent inhibition SASKR,SASKR (russian thistle); [6],100%
same,Percent inhibition SASKR,SASKR (russian thistle); [7],100%
same,Percent inhibition LOLMG,"LOLMG (annual ryegrass); weed, PPI application, 10 g/ha",0%
same,Percent inhibition LOLMG,"LOLMG (annual ryegrass); weed, PPI application, 30 g/ha",0%
same,Percent inhibition LOLMG,LOLMG (annual ryegrass); [5],65%
same,Percent inhibition LOLMG,LOLMG (annual ryegrass); [6],100%
same,Percent inhibition LOLMG,LOLMG (annual ryegrass); [7],99%
same,Percent inhibition AVEFA,"AVEFA (wild oat); weed, PPI application, 10 g/ha",0%
same,Percent inhibition AVEFA,"AVEFA (wild oat); weed, PPI application, 30 g/ha",0%
same,Percent inhibition AVEFA,AVEFA (wild oat); [5],20%
same,Percent inhibition AVEFA,AVEFA (wild oat); [6],40%
same,Percent inhibition AVEFA,AVEFA (wild oat); [7],95%
same,Percent inhibition AGSST,"[3]; weed, PPI application, 10 g/ha",90%
same,Percent inhibition AGSST,"[3]; weed, PPI application, 30 g/ha",70%
same,Percent inhibition AGSST,[3]; [5],100%
same,Percent inhibition AGSST,[3]; [6],100%
same,Percent inhibition AGSST,[3]; [7],100%
same,Percent inhibition ZEAMX,corn (ZEAMX); 10 g/ha,0%
same,Percent inhibition ZEAMX,corn (ZEAMX); 30 g/ha,0%
same,Percent inhibition ZEAMX,corn (ZEAMX); 100 g/ha,0%
same,Percent inhibition ZEAMX,corn (ZEAMX); 300 g/ha,10%
same,Percent inhibition ZEAMX,corn (ZEAMX); 900 g/ha,40%
same,Percent inhibition GLYMX,soybean (GLYMX); 10 g/ha,0%
same,Percent inhibition GLYMX,soybean (GLYMX); 30 g/ha,0%
same,Percent inhibition GLYMX,soybean (GLYMX); 100 g/ha,0%
same,Percent inhibition GLYMX,soybean (GLYMX); 300 g/ha,10%
same,Percent inhibition GLYMX,soybean (GLYMX); 900 g/ha,70%
